According to patent US5888763A, “Peptides specific for the first Crk-SH3 domain” (The Rockefeller University, priority 1994, dated 1999):
Read-outs that look alike come from different tables or passages of the source. Where a SMILES comes first, the peptide text is derived from it. Where no end group is shown, it is not given here.

Tests used:
[1] = target: T1, v-Crk (Avian sarcoma virus CT10, UniProt P05433); assay: Tryptophan fluorescence titration of peptides with gst-v-Crk; assay type: binding; settings: Table 3; fluorescence measurements
T1 construct: made in house; host or cells: bacteria
T1 sequence (P05433 whole entry): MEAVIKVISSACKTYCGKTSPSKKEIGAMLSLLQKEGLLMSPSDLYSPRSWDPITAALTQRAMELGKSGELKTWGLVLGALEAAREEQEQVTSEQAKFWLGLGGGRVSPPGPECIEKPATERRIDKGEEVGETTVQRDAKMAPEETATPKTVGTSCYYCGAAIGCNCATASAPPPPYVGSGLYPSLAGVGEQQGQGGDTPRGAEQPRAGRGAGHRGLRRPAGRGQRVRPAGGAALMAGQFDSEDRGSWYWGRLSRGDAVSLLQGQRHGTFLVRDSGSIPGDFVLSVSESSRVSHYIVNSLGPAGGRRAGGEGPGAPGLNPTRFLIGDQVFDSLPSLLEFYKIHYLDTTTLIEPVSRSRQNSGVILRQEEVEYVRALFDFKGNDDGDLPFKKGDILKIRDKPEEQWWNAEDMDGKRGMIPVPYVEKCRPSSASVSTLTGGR
Text: (§1) Fluorescence Measurements. The fluorescence measurements were based predominantly on the interactions of the peptides with the aromatic residues, predominantly Trp (Yu et al., 1994, Cell 76:933) in the CrkSH3 domain.
(§2) Measurements were made with a Perkin-Elmer 760-40 fluorescence spectrophotometer at a excitation wavelength of 290 nm (slitwidth 2 nm) and an emission wavelength of 345 nm (slitwidth 17 nm). A mini-magnetic stirrer, CUV-O-STIR model 333 (HELLMA, Long Island, N.Y.) was used to mix the solution in a 1 cm square quartz fluorescence cell. A circulating water bath was used to maintain the sample temperature at 18° C. To obtain the titration curves for calculations of the binding constants, peptides from a stock solution of 5 mg/ml in TBS, 0.05% Tween-20 were added in small increments to a 1 ml volume of 0.5 μM SH3 domain in PBS, 1 mM Dithiothreitol (DTT).
(§3) Calculation of the binding constant. Since the concentration of the SH3-domain containing protein was low, the experimental data were fitted to the following equation:
(§4) F=Fmax *[peptide]/(Kd +[peptide]) (1)
(§5) Non-linear regression curve fitting using SigmaPlot (Jandel Scientific, San Rafael, Calif.) was carried out to fit the experimental data to equation (1) with Fmax and Kd as fitted parameters.

[2] = target: T2, c-CrkSH3(1) (Mus musculus, UniProt Q64010); assay: Tryptophan fluorescence titration of peptides with gst-c-CrkSH3(1); assay type: binding, murine; settings: fluorescence measurements
T2 construct: made in house; host or cells: bacteria
Text: as §1, §2, §3, §4, §5

[3] = target: T3, Grb2 SH3 domain (Homo sapiens, UniProt P62993); assay: Tryptophan fluorescence titration of peptides with gst-Grb2; assay type: binding
T3 construct: made in house; host or cells: bacteria
T3 sequence (P62993 whole entry, the tested form may be a part): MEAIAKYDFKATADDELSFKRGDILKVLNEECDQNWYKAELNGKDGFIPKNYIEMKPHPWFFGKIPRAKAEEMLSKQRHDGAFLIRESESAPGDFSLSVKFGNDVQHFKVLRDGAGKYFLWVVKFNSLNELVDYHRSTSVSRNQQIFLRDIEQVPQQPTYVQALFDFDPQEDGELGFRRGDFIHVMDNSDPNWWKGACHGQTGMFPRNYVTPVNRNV

[4] = target: T4, CRKL (Homo sapiens, UniProt P46109); assay: Tryptophan fluorescence titration of peptides with gst-CRKL; assay type: binding; settings: Table 3; fluorescence measurements
T4 construct: made in house; host or cells: bacteria
T4 sequence (P46109 whole entry, species assumed): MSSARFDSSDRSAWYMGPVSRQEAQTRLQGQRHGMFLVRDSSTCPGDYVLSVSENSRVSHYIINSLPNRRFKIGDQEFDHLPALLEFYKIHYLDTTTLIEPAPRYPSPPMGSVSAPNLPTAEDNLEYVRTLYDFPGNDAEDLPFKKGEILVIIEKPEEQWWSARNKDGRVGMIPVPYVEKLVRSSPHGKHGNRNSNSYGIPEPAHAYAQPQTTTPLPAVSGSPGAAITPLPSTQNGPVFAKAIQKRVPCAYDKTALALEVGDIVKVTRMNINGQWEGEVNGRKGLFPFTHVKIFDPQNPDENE
Text: as §1, §2, §3, §4, §5

[5] = target: gst-CrkSH3SH3; assay: ELISA: biotinylated gst-CB fusion proteins binding to immobilized gst-CrkSH3SH3; settings: wells coated with 100 ng/well gst-CrkSH3SH3, biotinylated gst-CB fusion protein, read-out: apparent Kd (half saturation point)
Chain of gst-CrkSH3SH3 (Q64010 132-296 limits assumed): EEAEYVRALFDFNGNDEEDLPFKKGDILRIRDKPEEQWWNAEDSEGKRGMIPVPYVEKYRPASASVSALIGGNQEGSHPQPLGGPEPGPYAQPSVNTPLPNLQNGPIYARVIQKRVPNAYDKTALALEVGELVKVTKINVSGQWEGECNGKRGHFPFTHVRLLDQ
Procedure: ELISA. gst-CB-1 to -4 proteins were biotinylated with Sulfosuccinimidyl 6-(biotinamido) hexanoate (Pierce) according to the manufacturers instructions. ELISA plates (Nunc) were coated with 100 ng/well of gst-Grb2, gst-CrkSH3SH3 or gst in 0.1M NaHCO3, pH 9.6, over night at room temperature (Jones et al., 1991, Mol. Cell Biol. 11:2641). Wells were then blocked with 2% BSA. After washing three times with blocking buffer (20 mM Tris-HCl, pH 7.5, 100 mM NaCl, 0.05% Tween-20, 1 mM EDTA, 0.2% BSA and 0.1% Ovalbumin), biotinylated gst-CB fusion proteins were added at the concentrations indicated in FIG. 6. To measure bound gst-CB fusion proteins, wells were incubated with horseradish Peroxidase coupled streptavidin (Gibco). A chromogenic substrate, 2,2'-azinobis(3-ethylbenzothiazoline-6-sulfonic acid) diaminonium salt (ABTS, Pierce) was then added and the OD was measured at 405 nm after 5 and 15 min and the 5 min OD value subtracted from the 15 min OD value to yield DOD405. In each experiment, the DOD405 at saturation of SH3 domain binding sites was considered 100% . DOD405 values for all other points within the same experiment were expressed as a percentage of this 100% value. Binding to gst alone was subtracted at each data point.

[6] = target: gst-v-Crk (Avian sarcoma virus CT10 (Avian sarcoma …, UniProt P05433)); assay: tryptophan fluorescence titration
[7] = target: T5, gst-c-CrkSH3(1) (Example 2) (murine, UniProt Q64010); assay: tryptophan fluorescence titration
[8] = target: T5, gst-c-CrkSH3(1) (Example 2); assay: tryptophan fluorescence titration; remark: listed apart in the source
[9] = target: T5, gst-c-CrkSH3(1) (Example 2); assay: tryptophan fluorescence titration; remark: listed apart in the source
[10] = target: T5, gst-c-CrkSH3(1) (Example 2); assay: filter binding of 35S-gst-CrkSH3(1) to blotted gst-fusion peptides
[11] = target: T5, gst-c-CrkSH3(1) (Example 2); assay: tryptophan fluorescence titration with gst-CrkSH3(1)
[12] = target: T5, gst-c-CrkSH3(1) (Example 2); assay: rounded value given in the summary of Example 3 for the peptide and Crk SH3-N; measured by fluorescence in Example 2
[13] = c-CrkSH3(1) Kd (μM), Table 2, gst-CrkSH3(1), 18° C
[14] = Table 2, gst-Grb2, fluorescence measurements, 18° C, read-out: Grb2SHD Kd

## CC(C)C[C@H](NC(=O)[C@H](C)NC(=O)[C@@H]1CCCN1C(=O)[C@@H]1CCCN1C(=O)[C@@H]1CCCN1)C(=O)N1CCC[C@H]1C(=O)N1CCC[C@H]1C(=O)N[C@@H](C)C(=O)N[C@@H](CCCCN)C(=O)N[C@@H](CCCNC(=N)N)C(=O)O (H-PPPALPPAKR-OH)
[1]
  Kd: 248 ± 10 µM

## CC(C)C[C@H](NC(=O)[C@@H]1CCCN1C(=O)[C@@H]1CCCN1C(=O)[C@H](CC(C)C)NC(=O)[C@H](C)NC(=O)[C@@H]1CCCN1C(=O)[C@@H]1CCCN1C(=O)[C@@H]1CCCN1)C(=O)N[C@@H](CCCCN)C(=O)N[C@@H](CCCNC(=N)N)C(=O)O (H-PPPALPPLKR-OH)
[2]; gst-c-CrkSH3(1) Kd (μM), Table 3
  Kd: 379 ± 1 µM
[1]
  Kd: 437 ± 6 µM

## CC(C)C[C@H](NC(=O)[C@@H]1CCCN1C(=O)[C@@H]1CCCN1C(=O)[C@@H]1CCCN1C(=O)[C@@H]1CCCN1)C(=O)N1CCC[C@H]1C(=O)N1CCC[C@H]1C(=O)N[C@@H](CCCCN)C(=O)N[C@@H](CCCCN)C(=O)N[C@@H](CCCNC(=N)N)C(=O)O [C3Gmut(1)] (H-PPPPLPPKKR-OH)
[3]
  Kd: 203 ± 3 µM

## CC(C)C[C@H](NC(=O)[C@H](C)NC(=O)[C@@H]1CCCN1C(=O)[C@@H]1CCCN1C(=O)[C@@H]1CCCN1)C(=O)N1CCC[C@H]1C(=O)N1CCC[C@H]1C(=O)N[C@@H](CCCNC(=N)N)C(=O)N[C@@H](CCCCN)C(=O)N[C@@H](CCCNC(=N)N)C(=O)O [C3Gmut(2)] (H-PPPALPPRKR-OH)
[4]
  Kd: 11.2 ± 0.5 µM
[2]; [13]
  Kd: 17.2 ± 0.4 µM
[3]
  Kd: 23.5 ± 0.8 µM

## CC(C)C[C@H](NC(=O)[C@H](C)NC(=O)[C@@H]1CCCN1C(=O)[C@@H]1CCCN1C(=O)[C@@H]1CCCN1)C(=O)N1CCC[C@H]1C(=O)N1CCC[C@H]1C(=O)N[C@@H](CCCCN)C(=O)N[C@@H](CCCCN)C(=O)N[C@@H](CCCNC(=N)N)C(=O)O [CB-1 peptide]
[4]
  Kd: 2.79 ± 0.1 µM
[2]; Kd for the CrkSH3(1) domain
  Kd: 1.89 ± 0.06 µM
[3]
  Kd: 142 ± 3 µM

## CC(C)[C@H](NC(=O)[C@@H]1CCCN1C(=O)[C@@H]1CCCN1C(=O)[C@@H]1CCCN1)C(=O)N1CCC[C@H]1C(=O)N1CCC[C@H]1C(=O)N[C@@H](CCCNC(=N)N)C(=O)N[C@@H](CCCNC(=N)N)C(=O)N[C@@H](CCCNC(=N)N)C(=O)N[C@@H](CCCNC(=N)N)C(=O)O [SOS-1, reference compound]
[4]
  Kd: 10.5 ± 0.8 µM
[2]; [13]
  Kd: 5.24 ± 0.16 µM
[3]
  Kd: 3.54 ± 0.16 µM

## CC[C@H](C)[C@H](NC(=O)[C@H](C)NC(=O)[C@@H]1CCCN1C(=O)[C@@H]1CCCN1)C(=O)N1CCC[C@H]1C(=O)N1CCC[C@H]1C(=O)N[C@@H](CCCNC(=N)N)C(=O)N[C@@H](CCC(N)=O)C(=O)N1CCC[C@H]1C(=O)N[C@H](C(=O)O)[C@@H](C)O [SOS-2] (H-PPAIPPRQPT-OH)
[3]; [14]
  Kd: 42 ± 4 µM

## CC(C)C[C@H](NC(=O)[C@@H]1CCCN1C(=O)[C@@H]1CCCN1)C(=O)N[C@@H](CC(C)C)C(=O)N1CCC[C@H]1C(=O)N1CCC[C@H]1C(=O)N[C@@H](CCCNC(=N)N)C(=O)N[C@@H](CCC(=O)O)C(=O)N1CCC[C@H]1C(=O)N[C@H](C(=O)O)C(C)C [SOS-3, reference compound] (H-PPLLPPREPV-OH)
[2]; [13]
  Kd: 206 ± 9 µM
[3]
  Kd: 88 ± 3 µM

## CC(C)[C@H](NC(=O)[C@@H]1CCCN1C(=O)[C@@H]1CCCN1C(=O)CN)C(=O)N1CCC[C@H]1C(=O)N1CCC[C@H]1C(=O)N[C@@H](CCCNC(=N)N)C(=O)N[C@@H](CCC(N)=O)C(=O)N[C@@H](CO)C(=O)N[C@H](C(=O)O)[C@@H](C)O [SOS-4, reference compound] (H-GPPVPPRQST-OH)
[2]; Table 2, gst-CrkSH3(1), 18° C, read-out: c-CrkSH3(1) Kd
  Kd: 663 ± 3 µM
[3]; [14]
  Kd: 94 ± 5 µM

## gst-CB-1: gst-fusion protein containing only the single proline-rich sequence CB-1 of C3G (SPPPALPPKKRQ; also: fused to GST)
[5]
  Kd: 0.0104 µM

## gst-CB-2: gst-fusion protein containing only the single proline-rich sequence CB-2 of C3G (DTPPALPEKKRR; also: fused to GST)
[5]
  Kd: 0.027 µM

## gst-CB-3: gst-fusion protein containing only the single proline-rich sequence CB-3 of C3G (EKPPPLPEKKNK; also: fused to GST)
[5]
  Kd: 0.0113 µM

## gst-CB-4: gst-fusion protein containing only the single proline-rich sequence CB-4 of C3G (APPPALPPKQRQ; also: fused to GST)
[5]
  Kd: 0.00285 µM

B1: peptide PPPALPPKKA (peptide)
peptide: PPPALPPKKA
[6]
  Kd: 71.8 µM
[7]
  Kd: 9.3 µM

B2: C3Gmut(2) peptide (PPPALPPRKR) (peptide)
peptide: PPPALPPRKR
[6]
  Kd: 23.5 µM
[8]
  fold decrease of binding against the wild type CB-1 peptide: 10 fold
  fold increase of Kd against the wild type CB-1 peptide: ~9 fold

B3: Lys-10Ala mutant peptide (PPPALPPAKR) (peptide)
peptide: PPPALPPAKR
[7]
  Kd: 22.1 µM
[8]
  fold decrease of binding against the wild type CB-1 peptide: 10 fold
  fold increase of Kd against the wild type CB-1 peptide: 11.7 fold
  fold reduction of binding affinity against the wild type CB-1 peptide: 11.6 fold

B4: peptide PPPALPPKAR (peptide)
peptide: PPPALPPKAR
[7]
  Kd: 5.74 µM

B5: SOS-1 peptide (PPPVPPRRRR) (peptide)
peptide: PPPVPPRRRR
[6]
  Kd: 23.7 µM

B6: C3Gmut(1) peptide (PPPPLPPKKR) (peptide)
peptide: PPPPLPPKKR
[9]
  Kd: 1.45 µM

B7: gst-3-11 (CB-1 gst-fusion peptide without the C-terminal Arg-12) (other)
chain: PPPALPPKK
[10]
  binding result: no binding

B8: peptide PPPALPPKKK (peptide)
peptide: PPPALPPKKK
[6]
  Kd: 36.2 µM
[7]
  Kd: 5 µM

B9: SOS-2 peptide (PPAIPPRQPT) (peptide)
peptide: PPAIPPRQPT
[9]
  Kd: 127 µM

B10: gst-1-12 (GST-NSPPPALPPKKR) (other)
chain: NSPPPALPPKKR
modifications: not fully specified
[10]
  binding result: binds

B11: CB-4 peptide (peptide)
peptide: PPPALPPKQR
[11]
  binding result: binds

B12: CB-3 peptide (peptide)
peptide: KPPPLPEKKQ
[11]
  binding result: binds

B13: CB-1 peptide (PPPALPPKKR) (peptide)
peptide: PPPALPPKKR
[6]
  Kd: 25.5 µM
[12]
  Kd: ~2 µM

B14: CB-2 peptide (peptide)
peptide: TPPALPEKKR
[11]
  binding result: binds
